Assay results published in patent US20210278408A1, “METHODS OF TREATMENT OF CANCER WITH SUBSTITUTED PYRROLE AND PYRAZOLE COMPOUNDS AND DIAGNOSIS OF CANCERS SUSCEPTIBLE TO TREATMENT WITH SUBSTITUTED PYRROLE AND PYRAZOLE COMPOUNDS” (Bantam Pharmaceutical, LLC, priority 2018, published 2021).
Like-named read-outs stand apart in the source and are kept apart here.

System: BJAB (malignant human B-cell-line)
Assay: BJAB cell proliferation
Format: cell-based
Set-up: scale not given here
Description: In certain embodiments, the therapeutic compound is one of the compounds of the compound table below. […] In certain embodiments, the therapeutic compound is a compound having an activity as “A,” “B” or “C” in the table below. In certain embodiments, the therapeutic compound is a compound having an activity as “A” or “B” in the table below. In certain embodiments, the therapeutic compound is a compound having an activity as “A” in the table below.
In certain embodiments, the therapeutic compound is one of the compounds of the compound table below, optionally provided as a pharmaceutically-acceptable salt or N-oxide, and/or a solvate or hydrate. […] In certain embodiments, the therapeutic compound is a compound having an activity as “A,” “B” or “C” in the table below. In certain embodiments, the therapeutic compound is a compound having an activity as “A” or “B” in the table below. In certain embodiments, the therapeutic compound is a compound having an activity as “A” in the table below.

[1] = BJAB (malignant human B-cell-line) cell proliferation, EC50, read-out: BJAB

Compound: Cc1nn(-c2nc(-c3ccc(Cl)c(Cl)c3)nn2CC(C)C)c(C(=O)O)c1-c1cccc(F)c1 [Compound B17, 1-(3-(3,4-dichlorophenyl)-1-isobutyl-1H-1,2,4-triazol-5-yl)-4-(3-fluorophenyl)-3-methyl-1H-pyrazole-5-carboxylic acid]
- EC50 [1]: > 20 µM

Compound: Cc1nn(-c2nc(N3CCC(C(F)(F)F)CC3)c(-c3ccc(C(F)(F)F)cc3)s2)c(C(=O)O)c1-c1cccc(F)c1 [Compound B61, 4-(3-fluorophenyl)-3-methyl-1-(5-(4-(trifluoromethyl)phenyl)-4-(4-(trifluoromethyl)piperidin-1-yl)thiazol-2-yl)-1H-pyrazole-5-carboxylic acid]
- EC50 [1]: < 1 µM

Compound: COCCOC1(C(F)(F)F)CCN(c2nc(-n3nc(C)c(-c4cccc(F)c4)c3C(=O)O)sc2SC(C)C)CC1 [Compound B48, 4-(3-fluorophenyl)-1-(5-(isopropylthio)-4-(4-(2-methoxyethoxy)-4-(trifluoromethyl)piperidin-1-yl)thiazol-2-yl)-3-methyl-1H-pyrazole-5-carboxylic acid]
- EC50 [1]: 1 to 5 µM

Compound: Cc1nn(-c2nc(N3CCC(F)(F)CC3)c(SC(C)C)s2)c(C(=O)O)c1-c1cccc(F)c1 [Compound B18, 1-(4-(4,4-difluoropiperidin-1-yl)-5-(isopropylthio)thiazol-2-yl)-4-(3-fluorophenyl)-3-methyl-1H-pyrazole-5-carboxylic acid]
- EC50 [1]: 1 to 5 µM

Compound: Cc1nn(-c2nc(N3CCC(C(C)C)CC3)c(SC(C)C)s2)c(C(=O)O)c1-c1cccc(F)c1 [Compound B67, 4-(3-fluorophenyl)-1-(4-(4-isopropylpiperidin-1-yl)-5-(isopropylthio)thiazol-2-yl)-3-methyl-1H-pyrazole-5-carboxylic acid]
- EC50 [1]: 1 to 5 µM

Compound: COCCN(C)C(=O)CCc1sc(-n2nc(C)c(-c3cccc(F)c3)c2C(=O)O)nc1-c1ccc(C(F)(F)F)cc1 [Compound B54, 4-(3-fluorophenyl)-1-(5-(3-((2-methoxyethyl)(methyl)amino)-3-oxopropyl)-4-(4-(trifluoromethyl)phenyl)thiazol-2-yl)-3-methyl-1H-pyrazole-5-carboxylic acid]
- EC50 [1]: > 20 µM

Compound: Cc1nn(-c2nc(-c3ccc(C(F)(F)F)cc3)c(-c3ccc(C(F)(F)F)cc3)s2)cc1-c1cccc(F)c1 [Compound B39, 2-(4-(3-fluorophenyl)-3-methyl-1H-pyrazol-1-yl)-4,5-bis(4-(trifluoromethyl)phenyl)thiazole]
- EC50 [1]: > 20 µM

Compound: Cc1nn(-c2nc(-c3cccc(F)c3)c(-c3ccc(C(F)(F)F)cc3)s2)c(C(=O)O)c1-c1cccc(F)c1 [Compound B62, 4-(3-fluorophenyl)-1-(4-(3-fluorophenyl)-5-(4-(trifluoromethyl)phenyl)thiazol-2-yl)-3-methyl-1H-pyrazole-5-carboxylic acid]
- EC50 [1]: 5 to 10 µM

Compound: Cc1cc(C(=O)O)n(-c2nc(-c3ccc(Cl)cc3OC3COC3)c(SC(C)C)s2)n1 [Compound B1, 1-(4-(4-chloro-2-(oxetan-3-yloxy)phenyl)-5-(isopropylthio)thiazol-2-yl)-3-methyl-1H-pyrazole-5-carboxylic acid]
- EC50 [1]: > 40 µM

Compound: COCC(=O)Nc1ccc(-c2sc(-n3nc(C)c(-c4cccc(F)c4)c3C(=O)O)nc2-c2ccc(C(F)(F)F)cc2)cc1 [Compound B51, 4-(3-fluorophenyl)-1-(5-(4-(2-methoxyacetamido)phenyl)-4-(4-(trifluoromethyl)phenyl)thiazol-2-yl)-3-methyl-1H-pyrazole-5-carboxylic acid]
- EC50 [1]: 10 to 25 µM

Compound: CNC(=O)CCc1sc(-n2nc(C)c(-c3cccc(F)c3)c2C(=O)O)nc1-c1ccc(C(F)(F)F)cc1 [Compound B47, 4-(3-fluorophenyl)-3-methyl-1-(5-(3-(methylamino)-3-oxopropyl)-4-(4-(trifluoromethyl)phenyl)thiazol-2-yl)-1H-pyrazole-5-carboxylic acid]
- EC50 [1]: > 20 µM

Compound: Cc1nn(-c2nc(-c3ccc(C(F)(F)F)cc3)c(CCO)s2)c(C(=O)O)c1-c1cccc(F)c1 [Compound B64, 4-(3-fluorophenyl)-1-(5-(2-hydroxyethyl)-4-(4-(trifluoromethyl)phenyl)thiazol-2-yl)-3-methyl-1H-pyrazole-5-carboxylic acid]
- EC50 [1]: > 20 µM

Compound: Cc1nn(-c2nc(-c3ccc(OC(F)(F)F)cc3)c(SC(C)C)s2)c(C(=O)O)c1-c1cccc(F)c1 [Compound A223, 4-(3-fluorophenyl)-1-(5-(isopropylthio)-4-(4-(trifluoromethoxy)phenyl)thiazol-2-yl)-3-methyl-1H-pyrazole-5-carboxylic acid]
- EC50 (Homo sapiens, BJAB cell proliferation, read-out: EC50): 1 to 5 µM

Compound: Cc1nn(-c2nc(-c3ccc(C(F)(F)F)cc3)c(SC(C)C)s2)c(C)c1-c1cccc(F)c1 [Compound B10, 2-(4-(3-fluorophenyl)-3,5-dimethyl-1H-pyrazol-1-yl)-5-(isopropylthio)-4-(4-(trifluoromethyl)phenyl)thiazole]
- EC50 [1]: > 40 µM

Compound: COCC(=O)N(C)c1ccc(-c2sc(-n3nc(C)c(-c4cccc(F)c4)c3C(=O)O)nc2-c2ccc(C(F)(F)F)cc2)cc1 [Compound B55, 4-(3-fluorophenyl)-1-(5-(4-(2-methoxy-N-methylacetamido)phenyl)-4-(4-(trifluoromethyl)phenyl)thiazol-2-yl)-3-methyl-1H-pyrazole-5-carboxylic acid]
- EC50 [1]: > 20 µM

Compound: Cc1nn(-c2nc(C3=CCC(C)CC3)c(SC(C)C)s2)c(C(=O)O)c1-c1cccc(F)c1 (stereo not shown) [Compound B4, 4-(3-fluorophenyl)-1-(5-(isopropylthio)-4-(4-methylcyclohex-1-en-1-yl)thiazol-2-yl)-3-methyl-1H-pyrazole-5-carboxylic acid]
- EC50 [1]: 1 to 5 µM

Compound: Cc1nn(-c2nc(N3CCOCC3)c(SC(C)C)s2)c(C(=O)O)c1-c1cccc(F)c1 [Compound B14, 4-(3-fluorophenyl)-1-(5-(isopropylthio)-4-morpholinothiazol-2-yl)-3-methyl-1H-pyrazole-5-carboxylic acid]
- EC50 [1]: > 40 µM

Compound: CCN1CCN(c2nc(-n3nc(C)c(-c4cccc(F)c4)c3C(=O)O)sc2SC(C)C)CC1 [Compound B26, 1-(4-(4-ethylpiperazin-1-yl)-5-(isopropylthio)thiazol-2-yl)-4-(3-fluorophenyl)-3-methyl-1H-pyrazole-5-carboxylic acid]
- EC50 [1]: > 20 µM

Compound: Cc1nn(-c2nc(C3=CCC4(CC3)OCCO4)c(SC(C)C)s2)c(C(=O)O)c1-c1cccc(F)c1 [Compound B7, 4-(3-fluorophenyl)-1-(5-(isopropylthio)-4-(1,4-dioxaspiro[4.5]dec-7-en-8-yl)thiazol-2-yl)-3-methyl-1H-pyrazole-5-carboxylic acid]
- EC50 [1]: 25 to 50 µM

Compound: COc1nn(-c2nc(-c3ccc(C(F)(F)F)cc3)c(SC(C)C)s2)c(C(=O)O)c1-c1cccc(F)c1 [Compound B13, 4-(3-fluorophenyl)-1-(5-(isopropylthio)-4-(4-(trifluoromethyl)phenyl)thiazol-2-yl)-3-methoxy-1H-pyrazole-5-carboxylic acid]
- EC50 [1]: 1 to 5 µM

Compound: COC1(C(F)(F)F)CCN(c2nc(-n3nc(C)c(-c4cccc(F)c4)c3C(=O)O)sc2SC(C)C)CC1 [Compound B42, 4-(3-fluorophenyl)-1-(5-(isopropylthio)-4-(4-methoxy-4-(trifluoromethyl)piperidin-1-yl)thiazol-2-yl)-3-methyl-1H-pyrazole-5-carboxylic acid]
- EC50 [1]: < 1 µM

Compound: COc1ccc(-c2sc(-n3nc(C)c(-c4cccc(F)c4)c3C(=O)O)nc2-c2ccc(C(F)(F)F)cc2)cc1 [Compound B45, 4-(3-fluorophenyl)-1-(5-(4-methoxyphenyl)-4-(4-(trifluoromethyl)phenyl)thiazol-2-yl)-3-methyl-1H-pyrazole-5-carboxylic acid]
- EC50 [1]: < 1 µM

Compound: Cc1nn(-c2nc(N3CCC(C(C)(C)C)CC3)c(SC(C)C)s2)c(C(=O)O)c1-c1cccc(F)c1 [Compound B40, 1-(4-(4-(tert-butyl)piperidin-1-yl)-5-(isopropylthio)thiazol-2-yl)-4-(3-fluorophenyl)-3-methyl-1H-pyrazole-5-carboxylic acid]
- EC50 [1]: < 1 µM

Compound: Cc1nn(-c2nc(N3CCC(C)(C)CC3)c(SC(C)C)s2)c(C(=O)O)c1-c1cccc(F)c1 [Compound B32, 1-(4-(4,4-dimethylpiperidin-1-yl)-5-(isopropylthio)thiazol-2-yl)-4-(3-fluorophenyl)-3-methyl-1H-pyrazole-5-carboxylic acid]
- EC50 [1]: < 1 µM

Compound: Cc1nn(-c2nc(-c3ccc(Cl)c(Cl)c3)c(SC(C)C)s2)c(C(=O)O)c1-c1cccc(F)c1 [Compound A151, 1-(4-(3,4-dichlorophenyl)-5-(isopropylthio)thiazol-2-yl)-4-(3-fluorophenyl)-3-methyl-1H-pyrazole-5-carboxylic acid]
- EC50 (BJAB cell proliferation): A, B

Compound: CCOCCOCCOc1ccc(-c2sc(-n3nc(C)c(-c4cccc(F)c4)c3C(=O)O)nc2-c2ccc(C(F)(F)F)cc2)cc1 [Compound B58, 1-(5-(4-(2-(2-ethoxyethoxy)ethoxy)phenyl)-4-(4-(trifluoromethyl)phenyl)thiazol-2-yl)-4-(3-fluorophenyl)-3-methyl-1H-pyrazole-5-carboxylic acid]
- EC50 [1]: 1 to 5 µM

Compound: Cc1nn(-c2nc(N3CCC(C)CC3)c(SC(C)C)s2)c(C(=O)O)c1-c1cccc(F)c1 [Compound B28, 4-(3-fluorophenyl)-1-(5-(isopropylthio)-4-(4-methylpiperidin-1-yl)thiazol-2-yl)-3-methyl-1H-pyrazole-5-carboxylic acid]
- EC50 [1]: 1 to 5 µM

Compound: COCCNC(=O)CCc1sc(-n2nc(C)c(-c3cccc(F)c3)c2C(=O)O)nc1-c1ccc(C(F)(F)F)cc1 [Compound B53, 4-(3-fluorophenyl)-1-(5-(3-((2-methoxyethyl)amino)-3-oxopropyl)-4-(4-(trifluoromethyl)phenyl)thiazol-2-yl)-3-methyl-1H-pyrazole-5-carboxylic acid]
- EC50 [1]: > 20 µM
